Test system: Rat skeletal muscle-derived L6 myoblasts (differentiated into myotube cells)
Test: Evaluation of glycogen accumulation in L6
Assay type: cell-based
Conditions: [14C] glycogen from D-[U-C14] glucose, 3 hours incubation, 100% = compound of Example 1 of WO/2011/058154 at 30 μM
Procedure: The glycogen accumulation activity was evaluated in skeletal muscle cells according to the published article (ANALYTICAL BIOCHEMISTRY, Vol. 261: 159-163, 1998) by the following method. Rat skeletal muscle-derived L6 myoblasts (ATCC) were seeded in a 96-well collagen-coated plate (IWAKI, 4860-010) by using a growth medium (10% FBS-containing α-MEM medium (NACALAI TESQUE, INC., 21444-05)) under a condition of 4×10^4 cells/100 μL/well. After culturing under conditions of 37° C. and 5% CO2 overnight, the medium was replaced with a differentiation medium (2% FBS-containing α-MEM medium), followed by culturing for 3 days to differentiate the myoblasts into myotube cells. On the day of evaluation, the medium was replaced with a glucose-deprived medium (0.1% BSA-containing DMEM medium (Gibco, 11966)). After culturing for 4 hours, the medium was replaced with assay media (0.1% BSA-containing DMEM medium (NACALAI TESQUE, INC., 08456-65)) containing 0.6% DMSO and one of the test compounds at a concentration which was twice the final evaluation concentration at 15 μL/well. Further, an assay medium containing D-[U—C14] glucose (PerkinElmer Inc., NEC042V) at […] was added at 15 μL/well to adjust the final volume to 30 μL/well. Then, the cells were incubated under conditions of 37° C. and 5% CO2 for 3 hours. After the incubation, each medium was removed by suction with an aspirator, and the wells were rinsed with PBS at 200 μL/well twice. Then, 1 N NaOH was added at 50 μL/well, and the cells were lysed by incubation at 60° C. for 10 minutes. After the temperature of the lysed cells was returned to room temperature, each whole cell lysate and […] glycogen (Sigma-Aldrich, G8876) at 5 μL/well were added to a Multiscreen HTS (Millipore, MSFCN6B) to which 100% ethanol was added in advance at 100 μL/well, followed by incubation at 4° C. for 20 minutes. After the incubation, aspiration was conducted by using Multiscreen HTS Vacuum Manifold (Millipore), followed by rinse with 66% ethanol at 200 μL/well twice. After ethanol remaining on the filter was completely removed by drying, MicroScint40 (PerkinElmer Inc.) was added at 50 μL/well, the amount of [14C] glycogen was measured with TopCountNXT (PerkinElmer Inc.). The activity of each test compound was calculated by the following method. Specifically, the relative activity (%) was calculated as 100×(B−A)/(C−A), where A represents a value (cpm) measured for a well not containing the compound but containing only DMSO, B represents a value measured for a well containing the compound and DMSO, and C represents a value measured for a well containing the compound of Example 1 of WO/2011/058154 at a final concentration of 30 μM. EC50 representing the concentration of the compound at which an increase in activity by 50% was caused was calculated using XLfit (idbs).

Q: How did the EC50 turn out when COC[C@@H]1CC[C@@H](C(=O)O)N1C(=O)c1cccc(COc2ccc(-c3cc(F)c(F)cc3SC)cc2)c1 [Example 62, (2S,5S)-1-[3-[[4-(4,5-Difluoro-2-methylsulfanyl-phenyl)phenoxy]methyl]benzoyl]-5-(methoxymethyl)pyrrolidine-2-carboxylic Acid] was run?
A: < 300 nM
